The supplement of paper PMC10307832

What was measured:
Assay in all cases: relative viability (nuclei count vs DMSO), 5 days (fraction); higher = more cells survive
Pictilisib + Alpelisib = compound: CS(=O)(=O)N1CCN(Cc2cc3nc(-c4cccc5[nH]ncc45)nc(N4CCOCC4)c3s2)CC1 [Pictilisib] + Cc1nc(NC(=O)N2CCC[C@H]2C(N)=O)sc1-c1ccnc(C(C)(C)C(F)(F)F)c1 [Alpelisib] (partner 2 µM)
Procedure, shortened: (§1)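 Relative viability was taken as the ratio of nuclei in treated wells to nuclei in vehicle wells. Lung cancer cell lines in 1536-well plates received compounds by pin tool one day after seeding, either one drug alone or a fixed anchor-drug dose plus five library-drug doses (not always all listed) in √10 steps. Nuclei were counted on 4× images after 5 days of treatment, and values are medians of duplicate plates.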

MK-2206 + Vorinostat = compound: NC1(c2ccc(-c3nc4ccn5c(=O)[nH]nc5c4cc3-c3ccccc3)cc2)CCC1 [MK-2206] + O=C(CCCCCCC(=O)Nc1ccccc1)NO [Vorinostat] (partner 1 µM)
Procedure, shortened: as §1

MK-2206 + Pemetrexed = compound: NC1(c2ccc(-c3nc4ccn5c(=O)[nH]nc5c4cc3-c3ccccc3)cc2)CCC1 [MK-2206] + Nc1nc2[nH]cc(CCc3ccc(C(=O)N[C@@H](CCC(=O)O)C(=O)O)cc3)c2c(=O)[nH]1 [Pemetrexed] (partner 0.2 µM)
Procedure, shortened: as §1

Pictilisib + Palbociclib = compound: CS(=O)(=O)N1CCN(Cc2cc3nc(-c4cccc5[nH]ncc45)nc(N4CCOCC4)c3s2)CC1 [Pictilisib] + CC(=O)c1c(C)c2cnc(Nc3ccc(N4CCNCC4)cn3)nc2n(C2CCCC2)c1=O [Palbociclib] (partner 0.5 µM)
Procedure, shortened: as §1

Pictilisib + Linsitinib = compound: CS(=O)(=O)N1CCN(Cc2cc3nc(-c4cccc5[nH]ncc45)nc(N4CCOCC4)c3s2)CC1 [Pictilisib] + C[C@]1(O)C[C@@H](c2nc(-c3ccc4ccc(-c5ccccc5)nc4c3)c3c(N)nccn32)C1 [Linsitinib] (partner 1 µM)
Procedure, shortened: as §1

Cell Line	relative viability (Pictilisib + Alpelisib; first compound 0.02 µM)	relative viability (Pictilisib + Alpelisib; first compound 0.06325 µM)	relative viability (Pictilisib + Alpelisib; first compound 0.6325 µM)	relative viability (Pictilisib + Alpelisib; first compound 2 µM)	relative viability (MK-2206 + Vorinostat; first compound 0.01 µM)	relative viability (MK-2206 + Vorinostat; first compound 0.03162 µM)	relative viability (MK-2206 + Vorinostat; first compound 0.3162 µM)	relative viability (MK-2206 + Vorinostat; first compound 1 µM)	relative viability (MK-2206 + Pemetrexed; first compound 0.01 µM)	relative viability (MK-2206 + Pemetrexed; first compound 0.03162 µM)	relative viability (MK-2206 + Pemetrexed; first compound 0.3162 µM)	relative viability (MK-2206 + Pemetrexed; first compound 1 µM)	relative viability (Pictilisib + Palbociclib; first compound 0.02 µM)	relative viability (Pictilisib + Palbociclib; first compound 0.06325 µM)	relative viability (Pictilisib + Palbociclib; first compound 0.6325 µM)	relative viability (Pictilisib + Palbociclib; first compound 2 µM)	relative viability (Pictilisib + Linsitinib; first compound 0.02 µM)	relative viability (Pictilisib + Linsitinib; first compound 0.06325 µM)	relative viability (Pictilisib + Linsitinib; first compound 0.6325 µM)	relative viability (Pictilisib + Linsitinib; first compound 2 µM)
LCLC-103H	0.946	1.03	0.818	0.848	0.764	0.827	0.701	0.743	0.441	0.435	0.485	0.442	0.525	0.485	0.44	0.351	1.14	1.14	0.814	0.716
HCC-44	0.893	0.79	0.674	0.412	1.07	1.1	1.12	1.07	0.632	0.593	0.61	0.675	1.02	1.01	0.955	0.977	0.607	0.627	0.609	0.303
RERF-LC-KJ	0.784	0.712	0.697	0.574	0.651	0.741	0.603	0.62	0.489	0.471	0.532	0.476	1.02	1.15	0.815	0.711	0.823	0.881	0.818	0.618
NCI-H1975	0.69	0.564	0.41	0.227	0.712	0.63	0.572	0.522	0.314	0.286	0.331	0.262	0.553	0.544	0.342	0.143	0.781	0.821	0.418	0.249
IA-LM	0.732	0.982	0.749	0.418	0.935	1.11	1.02	1.02	–	–	–	–	–	–	–	–	0.482	0.7	0.757	0.249
LCLC-97TM1	0.268	0.353	0.265	0.176	0.578	0.779	0.625	0.734	0.186	0.138	0.146	0.189	0.206	0.269	0.125	0.0838	0.17	0.161	0.189	0.17
NCI-H520	0.996	0.815	0.724	0.267	0.677	0.677	0.337	0.31	0.612	0.68	0.351	0.183	0.217	0.234	0.144	0.125	0.975	1.09	0.56	0.208
A-427	1.13	1.09	1.06	1.04	0.871	0.877	0.916	0.869	1.03	0.925	1.07	1.05	0.512	0.511	0.504	0.508	1.11	1.13	1.1	1.08
ABC-1	1.1	1.04	0.995	0.809	0.78	1.04	1.08	1.11	–	–	–	–	0.683	0.583	0.469	0.416	0.863	0.783	0.651	0.635
NCI-H460	0.509	0.521	0.301	0.141	0.677	0.785	0.717	0.599	0.0681	0.0647	0.0757	0.0577	0.185	0.161	0.111	0.0339	0.78	0.733	0.154	0.0347
EBC-1	0.904	0.836	0.67	0.295	–	–	–	–	–	–	–	–	–	–	–	–	1.02	0.966	0.768	0.195
ChaGo-K-1	–	–	–	–	0.754	0.856	0.763	0.702	0.267	0.268	0.265	0.265	0.942	0.954	0.844	0.72	–	–	–	–
NCI-H727	0.715	0.55	0.519	0.376	1.18	1.33	1.25	0.901	–	–	–	–	0.595	0.65	0.541	0.496	0.267	0.318	0.228	0.258
A549	0.785	0.627	0.619	0.345	–	–	–	–	–	–	–	–	–	–	–	–	0.674	0.606	0.476	0.307
NCI-H1563	1.06	0.851	0.724	0.591	–	–	–	–	0.746	0.771	0.697	0.744	–	–	–	–	1.16	1.1	0.835	0.6
NCI-H1703	0.435	0.314	0.227	0.195	–	–	–	–	–	–	–	–	–	–	–	–	1.19	0.634	0.347	0.137
NCI-H1299	1.06	1.07	1.08	1.04	–	–	–	–	–	–	–	–	–	–	–	–	1.03	1.01	0.991	0.864
NCI-H522	–	–	–	–	1.07	1.02	0.828	0.836	1.04	0.964	0.887	1	1.07	0.785	0.833	0.692	–	–	–	–
NCI-H1648	–	–	–	–	0.475	0.422	0.445	0.432	0.719	0.651	0.691	0.786	0.248	0.236	0.256	0.216	–	–	–	–
NCI-H2170	0.834	0.879	0.813	0.583	0.829	0.847	0.769	0.699	0.246	0.264	0.286	0.24	0.351	0.375	0.266	0.165	–	–	–	–
NCI-H596	0.476	0.481	0.523	0.36	0.64	0.754	0.604	0.462	0.45	0.567	0.502	0.498	–	–	–	–	1.02	0.853	0.643	0.337
